The text below walks through data of paper PMC12163485 (Drug Metabolism and Disposition, 2025).

For one series, the system named is mOct1. Also noted: method as in ref column References of Table 2 (Morse et al, 2020; Jensen et al, 2020; Meyer et al, 2022). The note with it: literature values; References of Table 2 (Morse et al, 2020; Jensen et al, 2020; Meyer et al, 2022); cited from earlier work.
A further series deals with T1, human OCT1 (hOCT1) (Homo sapiens, UniProt O15245).
T1 sequence (O15245 1-554): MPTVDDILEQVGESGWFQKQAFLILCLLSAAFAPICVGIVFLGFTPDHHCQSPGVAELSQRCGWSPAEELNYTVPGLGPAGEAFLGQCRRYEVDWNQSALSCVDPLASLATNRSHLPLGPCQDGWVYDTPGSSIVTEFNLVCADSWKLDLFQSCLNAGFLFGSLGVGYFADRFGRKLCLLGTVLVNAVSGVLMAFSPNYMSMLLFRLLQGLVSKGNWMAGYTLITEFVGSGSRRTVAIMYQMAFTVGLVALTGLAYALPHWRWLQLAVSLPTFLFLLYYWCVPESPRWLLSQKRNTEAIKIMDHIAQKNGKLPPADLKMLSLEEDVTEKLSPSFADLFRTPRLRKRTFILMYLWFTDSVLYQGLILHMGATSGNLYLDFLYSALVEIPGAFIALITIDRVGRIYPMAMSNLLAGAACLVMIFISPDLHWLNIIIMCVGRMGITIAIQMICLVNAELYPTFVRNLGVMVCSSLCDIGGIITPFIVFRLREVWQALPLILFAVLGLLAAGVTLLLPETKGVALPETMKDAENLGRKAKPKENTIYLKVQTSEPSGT
Also noted: expressed in transfected cells; empty vector control pcDNA5; method as in ref column References of Table 2 (Tzvetkov et al, 2018; Morse et al, 2020; Jensen et al, 2020; Meyer et al, 2019, 2022; Wittern et al, 2024 and own unpublished data; Elsby et al, 2017). The note with it: literature values; References of Table 2 (Tzvetkov et al, 2018; Morse et al, 2020; Jensen et al, 2020; Meyer et al, 2019, 2022; Wittern et al, 2024 and own unpublished data; Elsby et al, 2017); cited from earlier work.

The nature of series [1]: Pharmacokinetic parameters used for estimating the potential for DDIs. In kind it is in vivo, human. As for the experimental part: Ka was calculated manually based on available pharmacokinetic parameters.
For series [2] the following is noted: cited from earlier work; for cmax = Imax: dose and route as in Supplemental Table 4, ref Hardman, 2018, fenoterol Tzvetkov et al; for cmax = Imax / fraction unbound: ipratropium Zhang et al, 2023; for fraction unbound: fraction unbound in plasma, ref Hardman, 2018, Lombardo et al (2018), fenoterol Tzvetkov et al; for t1/2: ref Hardman, 2018, fenoterol Tzvetkov et al.

Series [3] deals with OCT1. As to conditions: read-out: inhibitory potency for metformin uptake via OCT1; substrate metformin; ref Ahlin et al, 2011; Panfen et al, 2019; cited from earlier work.
A further series concerns the target T2, human OCTN1 (hOCTN1) (Homo sapiens, UniProt Q9H015).
T2 construct: expressed in transfected cells
T2 sequence (Q9H015 1-551): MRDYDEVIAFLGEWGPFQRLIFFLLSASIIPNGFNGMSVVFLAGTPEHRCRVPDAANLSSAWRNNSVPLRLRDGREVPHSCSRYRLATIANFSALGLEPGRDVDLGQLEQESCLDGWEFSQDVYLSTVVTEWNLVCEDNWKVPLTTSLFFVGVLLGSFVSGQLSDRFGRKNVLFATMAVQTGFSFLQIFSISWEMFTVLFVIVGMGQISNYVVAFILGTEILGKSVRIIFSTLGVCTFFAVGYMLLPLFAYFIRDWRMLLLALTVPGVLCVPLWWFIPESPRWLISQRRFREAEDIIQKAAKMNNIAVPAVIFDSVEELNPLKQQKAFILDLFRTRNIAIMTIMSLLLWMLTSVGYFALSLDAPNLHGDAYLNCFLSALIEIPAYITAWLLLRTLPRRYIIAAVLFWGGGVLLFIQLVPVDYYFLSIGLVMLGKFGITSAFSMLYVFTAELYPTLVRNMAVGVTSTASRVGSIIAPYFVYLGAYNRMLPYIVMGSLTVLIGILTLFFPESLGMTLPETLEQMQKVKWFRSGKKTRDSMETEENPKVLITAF
Kind of series: Uptake of the extended cocktail by HEK293 cells overexpressing hOCTN1. As to conditions: Fig. 6. In kind it is in vitro ADME.

For series [4], the target named is T3, OCT1 (Homo sapiens, UniProt O15245).
T3 sequence (O15245 1-554): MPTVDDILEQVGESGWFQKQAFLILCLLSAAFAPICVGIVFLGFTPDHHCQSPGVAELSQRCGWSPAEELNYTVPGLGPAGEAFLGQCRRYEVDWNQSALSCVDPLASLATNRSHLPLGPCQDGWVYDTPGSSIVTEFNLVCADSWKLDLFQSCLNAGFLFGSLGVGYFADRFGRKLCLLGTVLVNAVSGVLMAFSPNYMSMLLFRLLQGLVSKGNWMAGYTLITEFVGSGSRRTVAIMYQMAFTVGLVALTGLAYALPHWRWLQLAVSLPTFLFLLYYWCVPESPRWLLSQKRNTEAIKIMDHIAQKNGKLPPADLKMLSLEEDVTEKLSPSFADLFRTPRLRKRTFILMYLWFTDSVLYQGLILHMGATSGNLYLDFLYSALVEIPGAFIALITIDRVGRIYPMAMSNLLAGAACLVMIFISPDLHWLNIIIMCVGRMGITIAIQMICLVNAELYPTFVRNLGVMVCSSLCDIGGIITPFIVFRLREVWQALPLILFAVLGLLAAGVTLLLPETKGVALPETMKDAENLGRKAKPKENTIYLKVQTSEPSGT
Kind of series: Uptake of the cocktail by HEK293 cells overexpressing human OCT1. The protocol:
(§1) Significance was calculated using Mann–Whitney U test. n = 5–8 independent experiments.

Another series concerns the target T4, mouse OCT1 (Mus musculus, UniProt O08966).
T4 sequence (O08966 1-556): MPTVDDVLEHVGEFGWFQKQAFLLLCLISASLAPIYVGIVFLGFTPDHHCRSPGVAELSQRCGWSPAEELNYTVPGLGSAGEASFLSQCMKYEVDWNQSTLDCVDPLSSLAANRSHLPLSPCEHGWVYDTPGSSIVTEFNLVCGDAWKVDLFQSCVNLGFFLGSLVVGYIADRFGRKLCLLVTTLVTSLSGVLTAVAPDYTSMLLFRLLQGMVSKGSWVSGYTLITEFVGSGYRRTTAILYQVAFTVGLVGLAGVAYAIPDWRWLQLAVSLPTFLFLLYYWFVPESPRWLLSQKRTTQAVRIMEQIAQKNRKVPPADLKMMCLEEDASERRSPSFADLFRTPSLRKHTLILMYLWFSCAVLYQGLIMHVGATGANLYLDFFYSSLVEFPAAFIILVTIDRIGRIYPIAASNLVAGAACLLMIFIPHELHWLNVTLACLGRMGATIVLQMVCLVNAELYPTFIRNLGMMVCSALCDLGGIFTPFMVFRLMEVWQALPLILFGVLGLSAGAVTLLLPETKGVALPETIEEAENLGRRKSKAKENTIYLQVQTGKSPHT
Kind of series: Uptake of the cocktail by HEK293 cells overexpressing mouse Oct1. The protocol: as §1

Series [5] concerns OCT1. As to conditions: ref Tzvetkov et al, 2018 (fenoterol); Matthaei et al, 2016 (sumatriptan); cited from earlier work.
The target of series [6] is T3, OCT1. Description: DDI risk R calculated from IC50 at human OCT1. The note with it: R=1+fup×Iin,max/IC50, cutoff R ≥ 1.1.
Substrate in series [7]: O=C(O[C@H]1C[C@H]2CC[C@@H](C1)[N+]21CCCC1)C(O)(c1ccccc1)c1ccccc1
Kind of series: Transport kinetics (KM, vmax) of OCT1-mediated uptake, HEK293 cells overexpressing human OCT1. In kind it is in vitro ADME. As to conditions: mean ± SD, pH 7.4.

Substrate in series [8]: CC(Cc1ccc(O)cc1)NCC(O)c1cc(O)cc(O)c1
Description: cells, lysate or membranes named. As to conditions: mean ± SD, pH 7.4.

Setting [9] is: Iin,max=Imax+Fa×ka×D/Qh, Qh 97 L/h, Fa 1, Imax for fenoterol and ipratropium.
Where [10] appears, read: unbound maximum inhibitor concentration at the inlet of the liver.
Where [11] appears, read: other: hOCT1, substrate tested alone.
Setting [12] is: other: hOCT1, substrate tested in cocktail.

Turning to `C[N@+]1(CC2CC2)CC[C@]23c4c5ccc(O)c4O[C@H]2C(=O)CC[C@@]3(O)[C@H]1C5` [Methylnaltrexone, methylnaltrexone], the Km in the series with mOct1 was 8.61 µM; at human OCT1 (hOCT1), 15.2 µM.

`COc1cc(Cc2cnc(N)nc2N)cc(OC)c1OC` [Trimethoprim, trimethoprim]: in series [1] (human, in vivo), the “I max, portal, u” value was 8.53 µM; the “Imax, portal” value is 3932 ng/mL; the ka is 1.66 h⁻¹. The k el in [1] (human, in vivo, po) is 1.92e-05 s⁻¹. Besides, in [2], the “cmax = Imax” value is listed as 1200 ng/mL, the fraction unbound is 0.63 and the t1/2 is 10.00 h. Besides, the tmax in series [2] (p.o., ref Hardman, 2018) was 2.00 h. Moreover, in the series with OCT1 [3], the IC50 was […].

As to `C[N+](C)(C)[C@@H](Cc1c[nH]c(=S)[nH]1)C(=O)[O-]` [L-ergothioneine], the “transport by OCTN1” value at human OCTN1 (hOCTN1) is “transported both L-carnitine and L-ergothioneine”.

Take `CN(C)CCc1c[nH]c2ccc(C[C@H]3COC(=O)N3)cc12` [Zolmitriptan, zolmitriptan]: the “human OCT1 uptake [fold change to pcDNA5]” value on OCT1 [4] (cocktail, fold change to the negative control, n = 12) is 6.6 fold change to pcDNA5. The “mouse Oct1 uptake [fold change to pcDNA5]” value on mouse OCT1 (fold change to the negative control, n = 12) is 7.6 fold change to pcDNA5. The Km on human OCT1 (hOCT1) was 105 µM.

With `CC(C)[N+]1(C)[C@@H]2CC[C@H]1C[C@@H](OC(=O)C(CO)c1ccccc1)C2` (stereo partly shown) [Ipratropium, ipratropium], the “Imax, portal” value in [1] (setting [9]) is on record as 0.08 ng/mL. The “I max, portal, u” value in [1] (setting [10]) is given as 0.0002 µM.

For the molecule `CC(C)(C)NCC(O)c1ccc(O)c(CO)c1` (stereo not shown) [Salbutamol, salbutamol], the “uptake stronger in mouse than in human OCT1” value at mouse OCT1 (ratio mouse/human) is 4.5 fold. Besides, the Km in the series on mOct1 is 52.2 µM; on human OCT1 (hOCT1) it was 310 µM.

For `COc1ccc(CCN(C)CCCC(C#N)(c2ccc(OC)c(OC)c2)C(C)C)cc1OC` (stereo not shown) [Verapamil, verapamil], the “Imax, portal” value in series [1] (setting [9]) is listed as 3550 ng/mL. Besides, in series [1] (first-order absorption rate constant, calculated manually from available pharmacokinetic parameters), the ka is 2.65 h⁻¹.

For the molecule `CC(Cc1ccc(O)cc1)NCC(O)c1cc(O)cc(O)c1` (stereo not shown) [Fenoterol, fenoterol], in the series with OCT1 [5], the “increase in systemic exposure in individuals homozygous for OCT1 loss-of-function genetic variants” value is 2 fold. The “transport by OCT1” value at OCT1 [4] (extended cocktail, Fig. 6) is given as “transported only by OCT1”. Moreover, the “Imax, portal” value in [1] (setting [9]) is 1.23 ng/mL. The “I max, portal, u” value in series [1] (setting [10]) is 0.0021 µM. Further, in [2], the “cmax = Imax” value is 1.23 ng/mL, the fraction unbound was 0.53 and the t1/2 was 1.27 h. At human OCT1 (hOCT1), the Km is 1.8 µM. On OCT1 [6], the “DDI risk R, victim drug ipratropium” value was 1.00; the “DDI risk R, victim drug metformin” value was 1.00; the “DDI risk R, victim drug methylnaltrexone” value is on record as 1.00; the “DDI risk R, victim drug salbutamol” value is reported as 1.00. For the same molecule, at OCT1 [6], the “DDI risk R, victim drug sumatriptan” value is given as 1.00; the “DDI risk R, victim drug trospium” value is given as 1.00; the “DDI risk R, victim drug zolmitriptan” value is reported as 1.00.

B1: human OCT1 (hOCT1) (Homo sapiens) (protein)
chain: MPTVDDILEQVGESGWFQKQAFLILCLLSAAFAPICVGIVFLGFTPDHHCQSPGVAELSQRCGWSPAEELNYTVPGLGPAGEAFLGQCRRYEVDWNQSALSCVDPLASLATNRSHLPLGPCQDGWVYDTPGSSIVTEFNLVCADSWKLDLFQSCLNAGFLFGSLGVGYFADRFGRKLCLLGTVLVNAVSGVLMAFSPNYMSMLLFRLLQGLVSKGNWMAGYTLITEFVGSGSRRTVAIMYQMAFTVGLVALTGLAYALPHWRWLQLAVSLPTFLFLLYYWCVPESPRWLLSQKRNTEAIKIMDHIAQKNGKLPPADLKMLSLEEDVTEKLSPSFADLFRTPRLRKRTFILMYLWFTDSVLYQGLILHMGATSGNLYLDFLYSALVEIPGAFIALITIDRVGRIYPMAMSNLLAGAACLVMIFISPDLHWLNIIIMCVGRMGITIAIQMICLVNAELYPTFVRNLGVMVCSSLCDIGGIITPFIVFRLREVWQALPLILFAVLGLLAAGVTLLLPETKGVALPETMKDAENLGRKAKPKENTIYLKVQTSEPSGT
notes: expressed in transfected cells; empty vector control pcDNA5
In the case of B1, the Michaelis constant (Km) in series [7] (setting [11]) worked out at 16.9 ± 2.46 µM; in series [7] (setting [12]), 13.9 ± 1.61 µM; in [8] (setting [11]) it was 0.94 ± 0.24 µM; in [8] (setting [12]) it was 0.95 ± 0.38 µM. In addition, the Vmax in [7] (setting [11]) turned out to be 0.000647 µmol/min/mg; in [7] (setting [12]), 0.000637 µmol/min/mg.
